# Tests used:
# [1] = Metabolic stability in human liver microsomes; format: in vitro ADME; conditions: both sexes, pooled liver microsomes, pH 7.4, 0.5 mg/ml protein, read-out: T1/2 LM human
# Procedure: Sample type: pooled liver or intestine microsomes; Species: CD1-mouse (male), human (mixed gender) Time points: 0, 10, 20, 40, 60 min cofactors, and negative control;
# Protein content: 0.5 mg/ml: Replicates: 2 with cofactors, 1 without cofactors; Cofactors: NADPH (1 mM)+UDPGA (1 mM)+15 μg/ml alamethicin Buffer: 0.1 M phosphate buffer pH 7.4, 2 mM MgCl2; Spiking solvent: 50% DMSO ( 1/100 to incubation); Quenching solvent: 2-fold volume of 75% ACN, Control: midazolam disappearance rate
# The study compounds were incubated with liver or intestine microsomes as specified above. The collected samples were stored at −20 C until thawed at room temperature, centrifuged and analyzed as presented below.
# The samples were analysed by UPLC/HR-MS (with data dependent MS/MS mode) to monitor substrate depletion (and later optionally metabolite formation). The analytical method was optimised by using the parent compound for optimum chromatographic properties (peak shape and retention) and mass spectrometric ionisation. Disappearance rate of the study compound was estimated based on relative LC/MS peak areas (o min marked as 100%), and was used to calculate in vitro half-life and clearance (and in vivo extrapolation of hepatic clearance).
# [2] = test system: primary brain cell cultures; experiment: NAD/NADH cycling assay; format: cell-based, mouse; conditions: after 30 min in the presence of the compound
# Procedure: Cycling assays for nicotinamide adenine dinucleotides was performed as described [Yang J, et al, Lactate promotes plasticity gene expression by potentiating NMDA signaling in neurons. Proc Natl Acad Sci USA. 2014. 111(33):12228-33]. Briefly, cells were rinsed two times with ice-cold PBS, harvested in 400 μL ice-cold carbonate-bicarbonate buffer (100 mM Na2CO3 and 20 mM NaHCO3 containing 10 mM nicotinamide to inhibit NADase), and frozen at −80° C. Cell membranes were lysed by heat shock in a 37° C. water bath and immediately chilled on ice. Extracts were centrifuged at 12,000×g for 30 min at 4° C. and half of the supernatant was heated at 60° C. for 30 min to denature NAD. Twenty-five microliters of the heated extract (containing NADH only), 100 μL of the unheated extract (containing NAD and NADH), and 50 μL of standards of known NADH (Roche) concentrations (ranging from 0.0625 to 1 μM) dissolved in carbonate bicarbonate buffer were loaded onto a 96-well microplate along with blanks (carbonate-bicarbonate buffer). Volumes were adjusted to 100 μL with carbonate-bicarbonate buffer and 150 μL of a reaction buffer was added into each well. […] The absorbance was followed spectrophotometrically at 560 nm every 15 s over a 5-min period (Safire 2; Tecan). Blank values were subtracted from all samples and NAD amounts were calculated by subtracting NADH values from total NAD+NADH values.
# [3] = test system: Arc, cFos, and Zif268; experiment: Quantitative PCR of immediate-early genes linked to neuronal plasticity; format: cell-based, mouse; conditions: 1 μM and 10 μM, 1 h and 2 h treatment
# Procedure: The effect of Compound A or derivative thereof on the mRNA expression of genes related to plasticity (Arc, cFos, and Zif268) was determined as described. Cox (cytochrome oxidase) was used to evaluate if the derivative changes expression of mitochondrial genes.
# Determination of gene expression was performed as previously described [Yang J, et al, Lactate promotes plasticity gene expression by potentiating NMDA signalling in neurons. Proc Natl Acad Sci USA. 2014. 111(33):12228-33]. Total RNA was isolated from cultured cells using Nucleospin RNA II kit (Macherey-Nagel) according to the manufacturer's instructions. The first strand of cDNA was synthesized from 100 ng of total RNA (60 min at 37° C. followed by 5 min at 95° C.) using a high-capacity RNA to cDNA reverse transcription system (Applied Biosystems). One-twentieth of the resulting cDNA was amplified by quantitative PCR (qPCR) with an ABI Prism 7900 system (Applied Biosystems). The PCR mix was composed of 6 ng of cDNA, 300 nM of forward and reverse primers in 10 μL of ix SYBR-Green PCR MasterMix (Applied Biosystems). Primer sequences were designed using Primer Express 3.0 software (Applied Biosystems) and oligonucleotides were synthesized by Microsynth.
# [4] = test system: Astrocytes; experiment: Cellular ATP/ADP ratio (luciferase, CellTiter-Glo); format: cell-based, mouse
# Procedure: ATP content was measured enzymatically as previously described [Lambert H P et al, Control of Mitochondrial pH by Uncoupling Protein 4 in Astrocytes Promotes Neuronal Survival, 2014 The Journal of Biological Chemistry 289, 31014-31028] using a luciferase assay, the CellTiter-Glo Luminescent cell viability assay (Promega). Astrocytes grown on multiplate of 48 wells were rinsed and incubated 1 h at 37° C. in an atmosphere containing 5% CO2 and 95% air in DMEM (D5030; Sigma-Aldrich) containing 44 mm NaHCO3 and 2 mm glucose. At the end of the incubation, medium was removed, and 200 μl of Tricine buffer solution (40 mm Tricine, 3 mm EDTA, 85 mm NaCl, 3.6 mm KCl, 100 mm NaF, and 0.1% saponin (84510; Sigma-Aldrich), pH 7.4) was put in each well. Cells were lysed by saponin effect and by pipetting. Each sample was divided for ATP measure and for ATP+ADP measure. 90-μl aliquots were distributed in a black-walled 96-well type microplates (PerkinElmer Life Sciences). […] Finally, 100 μl of CellTiter-Glo reagent (G7571; Promega) was added, and luminescence was immediately detected with a luminometer (Safire 2; Tecan). Luminescence was measured in a kinetic way determined by 20 readings at intervals of 1 min. Luminescence read at the plateau were taken to calculate the ATP/ADP ratio. […]
smiles,measurement,setting,value
"O=c1cc(-c2ccc(CCCC[P+](c3ccccc3)(c3ccccc3)c3ccccc3)cc2)oc2c(O)c(O)ccc12 [SND118, 4-[4-(7,8-dihydroxy-4-oxo-chromen-2-yl)phenyl]butyltriphenylphosphonium bromide]",half-life at 1 μM,[1],18 min
same,production of NADH (NAD/NADH ratio),[2],increased production of ATP and NADH
same,"mRNA expression of genes related to plasticity (Arc, cFos, and Zif268)",[3],increased
same,production of ATP,"[4]; 100 nM, 30 min",increased production of ATP
same,ATP/ADP ratio,[4]; various doses,trended higher at most doses

# Source: US20220411448A1, “CHROMENE-4-ONE DERIVATIVES AS BRAIN-DERIVED NEUROTROPHIC FACTOR (BDNF) MIMETICS” (FLORATEK PHARMA AG, priority 2019, published 2022)
